Test results: ChEMBL document CHEMBL5131468, “Systematic comparison of activity and mechanism of antimicrobial peptides against nosocomial pathogens” (Eur J Med Chem, 2022)
≈ marks a conversion by molar mass, not a printed value. Calls of active or inactive are those of the source. The rule behind the calls is not given here. Peptide text beside a SMILES is read from it.

Tests used:
Cell membrane [1] = assay: Induction of outer membrane permeabilization in Salmonella enterica serovar typhimurium SL1344 assessed as increase in NPN fluorescence intensity incubated for 15 mins by NPN-dye based fluorescence analysis; type: subcellular; conditions: Salmonella enterica subsp. enterica serovar Typhimurium
Cell membrane [2] = assay: Induction of inner membrane damage in Escherichia coli ATCC 25922 assessed disruption of membrane integrity at 0.5 to 256 ug/ml and measured after 90 mins by propidium iodide staining based flow cytometry; type: subcellular; conditions: dose 0.5-256 µg/ml
Escherichia coli [3] = assay: Bactericidal activity against Escherichia coli ATCC 25922 incubated for 90 mins by serial dilution assay; type: functional
Escherichia coli [4] = assay: Bactericidal activity against Escherichia coli BAA3051 incubated for 90 mins by serial dilution assay; type: functional
Cell membrane [5] = assay: Induction of membrane depolarization in Enterococcus faecalis ATCC 29212 at 0.5 times MIC after 60 mins by DiOC23 dye based based flow cytometry relative to control
Salmonella typhimurium [6] = assay: Bactericidal activity against Salmonella enterica serovar typhimurium SL1344 incubated for 90 mins by serial dilution assay; type: functional, Salmonella enterica subsp. enterica serovar Typhimurium
Enterococcus faecalis [7] = assay: Antibacterial activity against Enterococcus faecalis ATCC 29212 assessed as inhibition of bacterial growth incubated for 90 mins by serial dilution assay; type: functional
Escherichia coli [8] = assay: Antibacterial activity against Escherichia coli ATCC 25922 assessed as inhibition of bacterial growth incubated for 90 mins by serial dilution assay; type: functional
Cell membrane [9] = assay: Induction of membrane depolarization in Salmonella enterica serovar typhimurium SL1344 at 0.25 to 0.5 times MIC after 60 mins by DiOC23 dye based based flow cytometry; type: subcellular; conditions: Salmonella enterica subsp. enterica serovar Typhimurium
Staphylococcus aureus [10] = assay: Antibacterial activity against Staphylococcus aureus ATCC 29213 assessed as inhibition of bacterial growth incubated for 90 mins by serial dilution assay; type: functional
Cell membrane [11] = assay: Induction of membrane depolarization in Staphylococcus aureus ATCC 29213 at 0.5 times MIC after 60 mins by DiOC23 dye based based flow cytometry relative to control; type: subcellular
Escherichia coli [12] = assay: Antibacterial activity against Escherichia coli BAA3051 assessed as inhibition of bacterial growth incubated for 90 mins by serial dilution assay; type: functional
Staphylococcus aureus [13] = assay: Induction of morphological changes in Staphylococcus aureus ATCC 29213 at 0.5 to 2 times MIC incubated for 90 mins by Helium ion microscopy; type: functional, organism-based
Cell membrane [14] = assay: Induction of membrane depolarization in Enterococcus faecalis ATCC 29212 at 0.25 times MIC after 60 mins by DiOC23 dye based based flow cytometry; type: subcellular
Staphylococcus aureus [15] = assay: Bactericidal activity against Methicillin resistant Staphylococcus aureus ATCC 33591 incubated for 90 mins by serial dilution assay; type: functional
Enterococcus faecalis [16] = assay: Bactericidal activity against Enterococcus faecalis ATCC 29212 incubated for 90 mins by serial dilution assay; type: functional
Cell membrane [17] = assay: Induction of membrane depolarization in Staphylococcus aureus ATCC 29213 at 0.25 times MIC after 60 mins by DiOC23 dye based based flow cytometry; type: subcellular
HEK293 [18] = assay: Cytotoxicity against human HEK293 cells assessed as decrease in live cells at 250 ug/ml incubated for 2 hrs by MTS assay; type: toxicity, cell-based; conditions: hek293, 2 h, dose 250 µg/ml
Cell membrane [19] = assay: Induction of outer membrane permeabilization in Escherichia coli ATCC 25922 assessed as increase in NPN fluorescence intensity incubated for 15 mins by NPN-dye based fluorescence analysis; type: subcellular
Salmonella typhimurium [20] = assay: Antibacterial activity against Salmonella enterica serovar typhimurium SL1344 assessed as inhibition of bacterial growth incubated for 90 mins by serial dilution assay; type: functional, Salmonella enterica subsp. enterica serovar Typhimurium
Staphylococcus aureus [21] = assay: Bactericidal activity against Staphylococcus aureus ATCC 29213 incubated for 90 mins by serial dilution assay; type: functional
Cell membrane [22] = assay: Induction of outer membrane permeabilization in Escherichia coli BAA3051 assessed as increase in NPN fluorescence intensity incubated for 15 mins by NPN-dye based fluorescence analysis
Cell membrane [23] = assay: Induction of membrane depolarization in Escherichia coli ATCC 25922 at 0.5 times MIC after 60 mins by DiOC23 dye based based flow cytometry relative to control
Staphylococcus aureus [24] = assay: Antibacterial activity against Methicillin resistant Staphylococcus aureus ATCC 33591 assessed as inhibition of bacterial growth incubated for 90 mins by serial dilution assay; type: functional
HEK293 [25] = assay: Cytotoxicity against human HEK293 cells assessed as decrease in live cells upto 125 ug/ml incubated for 2 hrs by MTS assay; type: toxicity, cell-based; conditions: hek293, 2 h, dose < 125 µg/ml
Cell membrane [26] = assay: Induction of membrane depolarization in Escherichia coli ATCC 25922 at 0.25 to 0.5 times MIC after 60 mins by DiOC23 dye based based flow cytometry; type: subcellular
Cell membrane [27] = assay: Induction of membrane depolarization in Salmonella enterica serovar typhimurium SL1344 at 0.5 times MIC after 60 mins by DiOC23 dye based based flow cytometry relative to control; conditions: Salmonella enterica subsp. enterica serovar Typhimurium
Escherichia coli [28] = assay: Induction of morphological changes in Escherichia coli ATCC 25922 assessed as leakage in intracellular contents at 0.5 to 2 times MIC incubated for 90 mins by Helium ion microscopy; type: functional, organism-based
Cell membrane [29] = assay: Induction of inner membrane damage in Staphylococcus aureus ATCC 29213 assessed disruption of membrane integrity at 0.5 to 256 ug/ml and measured after 90 mins by propidium iodide staining based flow cytometry; type: subcellular; conditions: dose 0.5-256 µg/ml
Escherichia coli [30] = assay: Induction of morphological changes in Escherichia coli ATCC 25922 assessed as membrane collapse at 0.5 to 2 times MIC incubated for 90 mins by Helium ion microscopy; type: functional, organism-based
Escherichia coli [31] = assay: Induction of morphological changes in Escherichia coli ATCC 25922 assessed as leakage in intracellular contents at 0.5 times MIC incubated for 90 mins by Helium ion microscopy; type: functional, organism-based
HEK293 [32] = assay: Cytotoxicity against human HEK293 cells assessed as decrease in live cells at 15.6 ug/ml incubated for 2 hrs by MTS assay; type: toxicity, cell-based; conditions: hek293, 2 h, dose 15.6 µg/ml
HEK293 [33] = assay: Cytotoxicity against human HEK293 cells assessed as increase in LDH release at 31.25 ug/ml incubated for 2 hrs by LDH assay; type: toxicity, cell-based; conditions: hek293, 2 h, dose 31.25 µg/ml
Staphylococcus aureus [34] = assay: Induction of morphological changes in Staphylococcus aureus ATCC 29213 incubated for 90 mins by Helium ion microscopy; type: functional, organism-based
Lipid bilayer = assay: Induction of membrane disruption in Gram-negative bacterial cell membrane mimic POPE:POPG(7:3) large unilamellar vesicle assessed as carboxyfluorescein leakage by fluorescence analysis
Escherichia coli [35] = assay: Induction of morphological changes in Escherichia coli ATCC 25922 at 0.5 times MIC incubated for 90 mins by Helium ion microscopy; type: functional, organism-based
[36] = Salmonella enterica subsp. enterica serovar Typhimurium

| Compound | Activity (Cell membrane [1]) | Activity (Cell membrane [2]) | MBC (Escherichia coli [3]; ATCC 25922, 1.5 h) [µg/mL] | MBC (Escherichia coli [4]; BAA3051, 1.5 h) [µg/mL] | Activity (Cell membrane [5]) [%] | MBC (Salmonella typhimurium [6]; SL1344, 1.5 h) [µg/mL] | MIC (Enterococcus faecalis [7]; ATCC 29212, 1.5 h) [µg/mL] | MIC (Escherichia coli [8]; ATCC 25922, 1.5 h) [µg/mL] | Activity (Cell membrane [9]) [%] | MIC (Staphylococcus aureus [10]; ATCC 29213, 1.5 h) [µg/mL] | Activity (Cell membrane [11]) [%] | MIC (Escherichia coli [12]; BAA3051, 1.5 h) [µg/mL] | Activity (Staphylococcus aureus [13]) | MBC (Staphylococcus aureus [15]; ATCC 33591, 1.5 h) [µg/mL] | MBC (Enterococcus faecalis [16]; ATCC 29212, 1.5 h) [µg/mL] | Activity (Cell membrane [19]) | MIC (Salmonella typhimurium [20]; SL1344, 1.5 h) [µg/mL] | MBC (Staphylococcus aureus [21]; ATCC 29213, 1.5 h) [µg/mL] | Activity (Cell membrane [22]) | Activity (Cell membrane [23]) [%] | further results |
| --- | --- | --- | --- | --- | --- | --- | --- | --- | --- | --- | --- | --- | --- | --- | --- | --- | --- | --- | --- | --- | --- |
| CC[C@H](C)[C@H](NC(=O)[C@H](CO)NC(=O)[C@H](CCCCN)NC(=O)[C@H](Cc1c[nH]c2ccccc12)NC(=O)[C@H](CC(C)C)NC(=O)[C@H](C)N)C(=O)N[C@@H](CC(C)C)C(=O)N[C@@H](CCCCN)C(=O)N[C@@H](CC(N)=O)C(=O)N[C@H](C(=O)NCC(=O)N[C@@H](CCCCN)C(=O)N[C@@H](C)C(=O)N[C@@H](C)C(=O)NCC(=O)N[C@@H](CCCCN)C(=O)N[C@@H](C)C(=O)N[C@H](C(=O)N[C@@H](CC(C)C)C(=O)O)C(C)C)C(C)C (H-ALWKSILKNVGKAAGKAVL-OH) | Active | Active | 31.3 (≈ 15.9 µM) | 31.3 (≈ 15.9 µM) | 40 | 250 (≈ 127 µM) | 250 (≈ 127 µM) | 31.3 (≈ 15.9 µM) | 30 | 62.5 (≈ 31.8 µM) | 40 | 31.3 (≈ 15.9 µM) | Active | > 250 | 250 (≈ 127 µM) | Active | 250 (≈ 127 µM) | > 125 | Active | 40 | Activity (Cell membrane [14]): Active; Activity (Cell membrane [17]): Active; Activity (HEK293 [18]): Toxic; MIC (Staphylococcus aureus [24]; ATCC 33591, 1.5 h): > 125 µg/mL; Activity (HEK293 [25]): Toxic; Activity (Cell membrane [26]): 30%; Activity (Cell membrane [27]): 40% |
| CC[C@H](C)[C@H](NC(=O)[C@H](CCCCN)NC(=O)[C@@H](NC(=O)[C@H](Cc1ccccc1)NC(=O)[C@H](C)NC(=O)[C@H](CCCCN)NC(=O)CNC(=O)[C@H](Cc1ccccc1)NC(=O)[C@H](CCCCN)NC(=O)[C@H](CCCCN)NC(=O)[C@H](C)NC(=O)[C@H](CCCCN)NC(=O)[C@H](CCCCN)NC(=O)[C@H](CC(C)C)NC(=O)[C@H](Cc1ccccc1)NC(=O)[C@@H](N)CCCCN)C(C)C)C(=O)N[C@@H](CC(C)C)C(=O)O (H-KFLKKAKKFGKAFVKIL-OH) | Active | Active | 15.6 (≈ 7.82 µM) | 7.8 (≈ 3.91 µM) | 40 | 7.8 (≈ 3.91 µM) | 31.3 (≈ 15.7 µM) | 15.6 (≈ 7.82 µM) | 30 | 15.6 (≈ 7.82 µM) | 40 | 7.8 (≈ 3.91 µM) | Active | > 125 | 125 (≈ 62.7 µM) | Active | 7.8 (≈ 3.91 µM) | 31.3 (≈ 15.7 µM) | Active | 40 | Activity (Escherichia coli [28]): Active; Activity (Cell membrane [29]): Active; Activity (Escherichia coli [30]): Active; Activity (Escherichia coli [31]): Active; Activity (HEK293 [32]): Toxic; Activity (HEK293 [33]): Toxic; Activity (Staphylococcus aureus [34]): Active; Activity (Lipid bilayer): 20%; MIC (Staphylococcus aureus [24]; ATCC 33591, 1.5 h): > 125 µg/mL; Activity (Cell membrane [26]): 30%; Activity (Cell membrane [27]): 40%; Activity (Escherichia coli [35]): Active |
| GENTAMICIN | – | – | – | – | – | – | – | – | – | – | – | – | – | – | – | – | – | – | – | – | MBC (Escherichia coli [3]): 6.25 µg/mL; MBC (Escherichia coli [4]): 1.9 µg/mL; MBC (Salmonella typhimurium [6]; [36]): 12.5 µg/mL; MIC (Enterococcus faecalis [7]): 3.9 µg/mL; MIC (Escherichia coli [8]): 0.9 µg/mL; MIC (Staphylococcus aureus [10]): 3.9 µg/mL; MIC (Escherichia coli [12]): 1.9 µg/mL; MBC (Staphylococcus aureus [15]): 62.5 µg/mL; MBC (Enterococcus faecalis [16]): 31.3 µg/mL; MIC (Salmonella typhimurium [20]; [36]): 12.5 µg/mL; MBC (Staphylococcus aureus [21]): 6.25 µg/mL; MIC (Staphylococcus aureus [24]): 7.8 µg/mL |
